Assay results: PubChem BioAssay (NCI)
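In this assay, cells in 96-well plates receive the compound at five concentrations for 48 hours. Endpoints are linearly interpolated between the surrounding concentrations. TGI denotes the concentration required for complete inhibition of growth.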

Experiments:
Assay in all cases: DTP human tumour cell line panel, 48 h
A549 NSCLC = system: A549 NSCLC
OVCAR-4 ovarian = system: OVCAR-4 ovarian
SF-268 CNS = system: SF-268 CNS
M14 melanoma = system: M14 melanoma
UACC-257 melanoma = system: UACC-257 melanoma
U251 CNS = system: U251 CNS
OVCAR-8 ovarian = system: OVCAR-8 ovarian
NCI-H226 lung = system: NCI-H226 lung
SF-539 CNS = system: SF-539 CNS
UO-31 renal = system: UO-31 renal
MOLT-4 leukemia = system: MOLT-4 leukemia
HOP-92 NSCLC = system: HOP-92 NSCLC
NCI-H522 lung = system: NCI-H522 lung
SNB-19 CNS = system: SNB-19 CNS

Measured: TGI

COc1ccc(Cc2nccc3cc(OC)c(OC)cc23)cc1OC
> 100 µM: all assays above

O=C(O)c1oc(C(=O)O)c(C(=O)O)c1C(=O)O
not listed: SF-539 CNS
> 100 µM: all other assays above

CCCCC(=O)Oc1ccc2c(C)cc(=O)oc2c1
> 100 µM: all assays above

c1ccc(-c2nnc(-c3nsc4ccccc34)o2)cc1
not listed: NCI-H226 lung | NCI-H522 lung
> 100 µM: all other assays above

O=C(O)C12CCCC(CCC1)C2
not listed: NCI-H226 lung
> 100 µM: all other assays above

CCOC(=O)C1=C(C)N(NC(N)=O)C2(O)CCCC(=O)C12C (stereo not drawn)
not listed: SF-268 CNS | UO-31 renal | MOLT-4 leukemia
> 100 µM: all other assays above

CCCCS(=O)(=O)Nc1ccc(Nc2c3ccccc3nc3ccccc23)c(OC)c1
3.97 µM: MOLT-4 leukemia
13.3 µM: OVCAR-8 ovarian
7.07 µM: A549 NSCLC
18.8 µM: OVCAR-4 ovarian
9.08 µM: HOP-92 NSCLC
5.85 µM: U251 CNS
18.6 µM: UACC-257 melanoma
10.2 µM: UO-31 renal
5.98 µM: SF-539 CNS
18.7 µM: NCI-H522 lung
14.5 µM: SF-268 CNS | SNB-19 CNS
16.9 µM: NCI-H226 lung

c1ccc(C[n+]2cccc(-c3cc4ccccc4[nH]3)c2)cc1
32.3 µM: UACC-257 melanoma
54 µM: HOP-92 NSCLC
55.2 µM: M14 melanoma
91.1 µM: MOLT-4 leukemia
53.9 µM: NCI-H522 lung
not listed: SF-539 CNS
> 100 µM: all other assays above
